Source: patent US20220095617A1, “PLANT GROWTH REGULATING AGENT” (IDEMITSU KOSAN CO.,LTD., priority 2019, published 2022)

Tests used:
[1] = tested on: Cabbage (Okina); assay: Example 18: Growth-promoting effect (cabbage, seed dressing); format: in vivo; conditions: for Increase/decrease of above-ground part / Increase/decrease of underground part: non-addition group = 100%; for Weight of above-ground part FW / Weight of underground part FW: 25° C., 28 days
Method: For cabbage (Okina, Takii & Co., Ltd.), seed dressing was carried out by application, at 5% seed weight, of a dilution of hesperidin prepared at a final concentration of 1 to 100 ppm (using water as the solvent). The dressed cabbage seeds were sown on a cell tray filled with seedling culture soil (manufactured by Nihon Hiryo Co., Ltd.; “Naebijin N100”). […]

[2] = tested on: lettuce (Green Wave); assay: Example 17: Growth-promoting effect (lettuce, seed treatment); format: in vivo; conditions: for Increase/decrease of above-ground part / Increase/decrease of underground part: non-addition group = 100%; for Weight of above-ground part FW / Weight of underground part FW: 25° C., 28 days
Method: For lettuce (Green Wave, Takii & Co., Ltd.), seed dressing was carried out by application, at 5% seed weight, of a dilution of hesperidin prepared at a final concentration of 1 to 100 ppm (using water as the solvent). The dressed lettuce seeds were sown on a cell tray filled with seedling culture soil (manufactured by Nihon Hiryo Co., Ltd.; “Naebijin N100”). […]

[3] = seed treatment (dressing) 1 ppm
[4] = seed treatment (dressing) 10 ppm
[5] = seed treatment (dressing) 100 ppm

## COc1ccc([C@@H]2CC(=O)c3c(O)cc(O[C@@H]4O[C@H](CO[C@@H]5O[C@@H](C)[C@H](O)[C@@H](O)[C@H]5O)[C@@H](O)[C@H](O)[C@H]4O)cc3O2)cc1O [Hesperidin]
[1]; 1 ppm
  Increase/decrease of above-ground part: 106%
  Increase/decrease of underground part: 108%
[1]; 10 ppm
  Increase/decrease of above-ground part: 112%
  Increase/decrease of underground part: 106%
[1]; 100 ppm
  Increase/decrease of above-ground part: 106%
  Increase/decrease of underground part: 101%
[1]; seed dressing 1 ppm
  Weight of above-ground part FW: 54.0 mg/individual
  Weight of underground part FW: 15.6 mg/individual
[1]; seed dressing 10 ppm
  Weight of above-ground part FW: 57.2 mg/individual
  Weight of underground part FW: 15.3 mg/individual
[1]; seed dressing 100 ppm
  Weight of above-ground part FW: 53.9 mg/individual
  Weight of underground part FW: 14.6 mg/individual
[1]; seed dressing, growth promotion
  optimum concentration of hesperidin to be added for cabbage: lower than 100 ppm
[2]; 1 ppm
  Increase/decrease of above-ground part: 109%
  Increase/decrease of underground part: 133%
[2]; 10 ppm
  Increase/decrease of above-ground part: 113%
  Increase/decrease of underground part: 142%
[2]; 100 ppm
  Increase/decrease of above-ground part: 149%
  Increase/decrease of underground part: 126%
[2]; [3]
  Weight of above-ground part FW: 27.4 mg/individual
  Weight of underground part FW: 7.6 mg/individual
[2]; [4]
  Weight of above-ground part FW: 28.3 mg/individual
  Weight of underground part FW: 8.1 mg/individual
[2]; [5]
  Weight of above-ground part FW: 37.4 mg/individual
  Weight of underground part FW: 7.2 mg/individual
